Reference: ChEMBL document CHEMBL1201861, “Genomics of Drug Sensitity in Cancer screening data, Wellcome Trust Sanger Institute”
pIC50: −log10 of the molar value.

Legend:
Experiment in all cases: cells
HT-1376 = type: functional, cell-based, Homo sapiens; settings: Homo sapiens, HT-1376
Description: SANGER: Inhibition of human HT-1376 cell growth in a cell viability assay.

NCI-H226 = type: functional, cell-based, Homo sapiens; settings: Homo sapiens, NCI-H226;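 further: cell viability read-out used to gauge growth inhibition of the cells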
Description: SANGER: Inhibition of human NCI-H226 cell growth in a cell viability assay.

DBTRG-05MG = type: functional, cell-based, Homo sapiens; settings: Homo sapiens, DBTRG-05MG;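 further: cell viability assay measuring growth inhibition of human DBTRG-05MG cells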
Description: SANGER: Inhibition of human DBTRG-05MG cell growth in a cell viability assay.

OS-RC-2 = type: functional, cell-based, Homo sapiens; settings: Homo sapiens, OS-RC-2;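 further: growth inhibition of human OS-RC-2 cells, measured by a cell viability assay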
Description: SANGER: Inhibition of human OS-RC-2 cell growth in a cell viability assay.

MHH-ES-1 = type: functional, cell-based, Homo sapiens; settings: Homo sapiens, MHH-ES-1;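 further: cell growth inhibition measured by a cell viability assay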
Description: SANGER: Inhibition of human MHH-ES-1 cell growth in a cell viability assay.

HCC1569 = type: functional, cell-based, Homo sapiens; settings: Homo sapiens, HCC1569;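 further: growth inhibition of human HCC1569 cells, read out with a cell viability assay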
Description: SANGER: Inhibition of human HCC1569 cell growth in a cell viability assay.

VMRC-RCZ = type: functional, cell-based, Homo sapiens; settings: Homo sapiens, VMRC-RCZ;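 further: growth inhibition measured with a cell viability assay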
Description: SANGER: Inhibition of human VMRC-RCZ cell growth in a cell viability assay.

KU812 cell line = type: functional, cell-based, Homo sapiens; settings: Homo sapiens, KU812;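 further: growth inhibition of KU812 cells, read out with a cell viability assay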
Description: SANGER: Inhibition of human KU812 cell growth in a cell viability assay.

MPP-89 = type: functional, cell-based, Homo sapiens; settings: Homo sapiens, MPP-89;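 further: growth inhibition of human MPP-89 cells, read out with a cell viability assay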
Description: SANGER: Inhibition of human MPP-89 cell growth in a cell viability assay.

SK-MEL-24 = type: functional, cell-based, Homo sapiens; settings: Homo sapiens, SK-MEL-24;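 further: growth inhibition read out by a cell viability assay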
Description: SANGER: Inhibition of human SK-MEL-24 cell growth in a cell viability assay.

Calu-3 = type: functional, cell-based, Homo sapiens; settings: Homo sapiens, Calu-3;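 further: growth inhibition of human Calu-3 cells, determined with a cell viability assay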
Description: SANGER: Inhibition of human Calu-3 cell growth in a cell viability assay.

HOS = type: functional, cell-based, Homo sapiens; settings: Homo sapiens, HOS;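 further: growth inhibition of human HOS cells, read out with a cell viability assay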
Description: SANGER: Inhibition of human HOS cell growth in a cell viability assay.

NCI-H1581 = type: functional, cell-based, Homo sapiens; settings: Homo sapiens, NCI-H1581;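 further: cell growth inhibition read out by a viability assay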
Description: SANGER: Inhibition of human NCI-H1581 cell growth in a cell viability assay.

SK-N-DZ = type: functional, cell-based, Homo sapiens; settings: Homo sapiens, SK-N-DZ;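 further: growth inhibition of the cancer cell line, read out through a viability assay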
Description: SANGER: Inhibition of human SK-N-DZ cell growth in a cell viability assay.

A-375 = type: functional, cell-based, Homo sapiens; settings: Homo sapiens, A-375;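 further: growth inhibition of A375 cells, read out with a cell viability assay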
Description: SANGER: Inhibition of human A375 cell growth in a cell viability assay.

NCI-H2342 = type: functional, cell-based, Homo sapiens; settings: Homo sapiens, NCI-H2342;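 further: growth inhibition of the cancer cell line, determined with a cell viability assay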
Description: SANGER: Inhibition of human NCI-H2342 cell growth in a cell viability assay.

MSTO-211H = type: functional, cell-based, Homo sapiens; settings: Homo sapiens, MSTO-211H
Description: SANGER: Inhibition of human MSTO-211H cell growth in a cell viability assay.

HCE-4 = type: functional, cell-based, Homo sapiens; settings: Homo sapiens, HCE-4;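 further: cell viability assay measuring inhibition of growth in the human HCE-4 cell line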
Description: SANGER: Inhibition of human HCE-4 cell growth in a cell viability assay.

LS-411N = type: functional, cell-based, Homo sapiens; settings: Homo sapiens, LS-411N
NCI-H2087 = type: functional, cell-based, Homo sapiens; settings: Homo sapiens, NCI-H2087;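 further: growth inhibition determined with a cell viability readout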
Description: SANGER: Inhibition of human NCI-H2087 cell growth in a cell viability assay.

NCI-H720 = type: functional, cell-based, Homo sapiens; settings: Homo sapiens, NCI-H720;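 further: growth inhibition of human NCI-H720 cells determined by a cell viability assay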
Description: SANGER: Inhibition of human NCI-H720 cell growth in a cell viability assay.

639-V = type: functional, cell-based, Homo sapiens; settings: Homo sapiens, 639-V;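 further: growth inhibition of 639-V cells, read out with a cell viability assay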
Description: SANGER: Inhibition of human 639-V cell growth in a cell viability assay.

SJRH30 = type: functional, cell-based, Homo sapiens; settings: Homo sapiens, SJRH30;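 further: growth inhibition of human SJRH30 cells, read out with a cell viability assay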
Description: SANGER: Inhibition of human SJRH30 cell growth in a cell viability assay.

KOSC-2 = type: functional, cell-based, Homo sapiens; settings: Homo sapiens, KOSC-2;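 further: growth inhibition of KOSC-2 cells, read out by a cell viability assay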
Description: SANGER: Inhibition of human KOSC-2 cell growth in a cell viability assay.

HuO9 = type: functional, cell-based, Homo sapiens; settings: Homo sapiens, HuO9;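 further: growth inhibition of HuO9 cells, read out with a cell viability assay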
Description: SANGER: Inhibition of human HuO9 cell growth in a cell viability assay.

MC116 = type: functional, cell-based, Homo sapiens; settings: Homo sapiens, MC116;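 further: growth inhibition of MC116 cells, read out with a cell viability assay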
Description: SANGER: Inhibition of human MC116 cell growth in a cell viability assay.

LB996-RCC = type: functional, cell-based, Homo sapiens; settings: Homo sapiens, LB996-RCC
Description: SANGER: Inhibition of human LB996-RCC cell growth in a cell viability assay.

HSC-2 = type: functional, cell-based, Homo sapiens; settings: Homo sapiens, HSC-2;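 further: growth inhibition of human HSC-2 cells, read out by a cell viability assay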
Description: SANGER: Inhibition of human HSC-2 cell growth in a cell viability assay.

CWR22R = type: functional, cell-based, Homo sapiens; settings: Homo sapiens, 22Rv1;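 further: growth inhibition of 22Rv1 cells, read out with a cell viability assay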
Description: SANGER: Inhibition of human 22RV1 cell growth in a cell viability assay.

OVCAR-8 = type: functional, cell-based, Homo sapiens; settings: Homo sapiens, OVCAR-8;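 further: growth inhibition of human OVCAR-8 cells, read out by a cell viability assay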
Description: SANGER: Inhibition of human OVCAR-8 cell growth in a cell viability assay.

A2780 = type: functional, cell-based, Homo sapiens; settings: Homo sapiens, A2780;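 further: growth inhibition of A2780 cells, read out with a cell viability assay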
Description: SANGER: Inhibition of human A2780 cell growth in a cell viability assay.

LNCaP-Clone-FGC = type: functional, cell-based, Homo sapiens; settings: Homo sapiens, LNCaP-Clone-FGC
Description: SANGER: Inhibition of human LNCaP-Clone-FGC cell growth in a cell viability assay.

CAL-62 = type: functional, cell-based, Homo sapiens; settings: Homo sapiens, CAL-62;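 further: growth inhibition of CAL-62 cells, read out with a cell viability assay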
Description: SANGER: Inhibition of human CAL-62 cell growth in a cell viability assay.

UMUC3 = type: functional, cell-based, Homo sapiens; settings: Homo sapiens, UMUC3;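 further: growth inhibition of human UM-UC-3 cells, read out with a cell viability assay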
Description: SANGER: Inhibition of human UM-UC-3 cell growth in a cell viability assay.

HT-3 = type: functional, cell-based, Homo sapiens; settings: Homo sapiens, HT-3;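 further: growth inhibition measured with a cell viability readout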
Description: SANGER: Inhibition of human HT-3 cell growth in a cell viability assay.

ME-180 = type: functional, cell-based, Homo sapiens; settings: Homo sapiens, ME-180;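 further: cell viability assay measuring growth inhibition of ME-180 cells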
Description: SANGER: Inhibition of human ME-180 cell growth in a cell viability assay.

OE19 = type: functional, cell-based, Homo sapiens; settings: Homo sapiens, OE19;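 further: growth inhibition of OE19 cells, measured through a cell viability read-out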
Description: SANGER: Inhibition of human OE19 cell growth in a cell viability assay.

MZ2-MEL = type: functional, cell-based, Homo sapiens; settings: Homo sapiens, MZ2-MEL;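 further: growth inhibition of MZ2-MEL cells read out with a cell viability assay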
Description: SANGER: Inhibition of human MZ2-MEL cell growth in a cell viability assay.

PANC-03-27 = type: functional, cell-based, Homo sapiens; settings: Homo sapiens, PANC-03-27
Description: SANGER: Inhibition of human PANC-03-27 cell growth in a cell viability assay.

Detroit 562 = type: functional, cell-based, Homo sapiens; settings: Homo sapiens, Detroit 562;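 further: growth inhibition of human Detroit 562 cells, read out by a cell viability assay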
Description: SANGER: Inhibition of human Detroit562 cell growth in a cell viability assay.

SK-MEL3 = type: functional, cell-based, Homo sapiens, SK-MEL-3; settings: Homo sapiens, SK-MEL3;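 further: growth inhibition of human SK-MEL-3 cells, read out with a cell viability assay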
Description: SANGER: Inhibition of human SK-MEL-3 cell growth in a cell viability assay.

DMS-273 = type: functional, cell-based, Homo sapiens; settings: Homo sapiens, DMS-273
Description: SANGER: Inhibition of human DMS-273 cell growth in a cell viability assay.

LXF-289 cell line = type: functional, cell-based, Homo sapiens; settings: Homo sapiens, LXF-289
Description: SANGER: Inhibition of human LXF-289 cell growth in a cell viability assay.

Measured: pIC50

CC1(C)CNc2cc(NC(=O)c3cccnc3NCc3ccncc3)ccc21 [MOTESANIB]
< 5.70: HT-1376 | NCI-H226 | DBTRG-05MG | OS-RC-2 | MHH-ES-1 | HCC1569 | VMRC-RCZ | KU812 cell line | MPP-89 | SK-MEL-24 | Calu-3 | HOS | NCI-H1581 | A-375 | NCI-H2342 | MSTO-211H | HCE-4 | LS-411N | NCI-H2087 | NCI-H720 | 639-V | SJRH30 | KOSC-2 | HuO9 | MC116 | LB996-RCC | HSC-2 | CWR22R | OVCAR-8 | A2780 | LNCaP-Clone-FGC | CAL-62 | UMUC3 | HT-3 | ME-180 | OE19 | MZ2-MEL | PANC-03-27 | Detroit 562 | SK-MEL3 | DMS-273 | LXF-289 cell line
6.26: SK-N-DZ

Cn1cnc2c(F)c(Nc3ccc(Br)cc3Cl)c(C(=O)NOCCO)cc21 [SELUMETINIB]
6.67: KU812 cell line
5.86: NCI-H2087
5.40: LB996-RCC
5.62: OS-RC-2
6.40: MZ2-MEL
5.82: CAL-62
< 5.40: HT-1376 | NCI-H226 | DBTRG-05MG | MHH-ES-1 | HCC1569 | VMRC-RCZ | MPP-89 | Calu-3 | HOS | NCI-H1581 | SK-N-DZ | NCI-H2342 | MSTO-211H | HCE-4 | LS-411N | NCI-H720 | 639-V | SJRH30 | KOSC-2 | HuO9 | MC116 | HSC-2 | CWR22R | OVCAR-8 | A2780 | LNCaP-Clone-FGC | HT-3 | ME-180 | OE19 | PANC-03-27 | Detroit 562 | DMS-273 | LXF-289 cell line
5.71: SK-MEL3
